From PMC7926936, “YM155 Inhibits NleB and SseK Arginine Glycosyltransferase Activity” (Pathogens, 2021)
pIC50: −log10 of the molar value.

Tests used:
SseK1 = SseK1 (Salmonella enterica, UniProt A0A0H3NK84); test: biochemical
NleB = NleB (Citrobacter rodentium, UniProt A0A482PDI9); test: biochemical
Sequence of NleB (A0A482PDI9 whole entry, looked up): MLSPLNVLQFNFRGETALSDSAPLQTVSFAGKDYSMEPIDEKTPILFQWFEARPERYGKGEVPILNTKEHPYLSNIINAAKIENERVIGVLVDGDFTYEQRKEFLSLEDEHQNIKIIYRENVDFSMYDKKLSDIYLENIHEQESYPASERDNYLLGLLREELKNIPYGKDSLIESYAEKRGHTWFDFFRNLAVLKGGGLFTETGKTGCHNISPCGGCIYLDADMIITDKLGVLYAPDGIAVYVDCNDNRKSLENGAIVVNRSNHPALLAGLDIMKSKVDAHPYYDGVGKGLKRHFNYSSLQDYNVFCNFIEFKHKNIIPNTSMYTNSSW

Sequence of SseK1 (A0A0H3NK84 whole entry, looked up): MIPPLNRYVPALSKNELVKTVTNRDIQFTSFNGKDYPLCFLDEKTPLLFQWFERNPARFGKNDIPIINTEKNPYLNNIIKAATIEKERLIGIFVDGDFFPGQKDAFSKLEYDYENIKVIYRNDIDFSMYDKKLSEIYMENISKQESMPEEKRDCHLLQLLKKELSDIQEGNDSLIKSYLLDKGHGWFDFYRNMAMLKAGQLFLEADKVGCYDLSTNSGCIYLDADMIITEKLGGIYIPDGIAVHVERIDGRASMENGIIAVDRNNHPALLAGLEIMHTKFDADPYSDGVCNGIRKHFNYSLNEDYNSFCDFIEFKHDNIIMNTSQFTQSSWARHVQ

COCCn1c2c([n+](Cc3cnccn3)c1C)C(=O)c1ccccc1C2=O [YM155]
pIC50 (SseK1): ~5.70 | pIC50 (NleB): ~5.70
